Results as given in patent US12295396B2, “Antagonists of T2R54 and compositions and uses thereof” (Firmenich Incorporated, priority 2018, dated 2025).
Where two headings read alike, the source gives them in different places.

Biological target: T1, hT2R54 (Homo sapiens, UniProt P59534)
T1 construct: expressed in transfected cells; it overexpresses a promiscuous G protein
T1 sequence (P59534 1-338): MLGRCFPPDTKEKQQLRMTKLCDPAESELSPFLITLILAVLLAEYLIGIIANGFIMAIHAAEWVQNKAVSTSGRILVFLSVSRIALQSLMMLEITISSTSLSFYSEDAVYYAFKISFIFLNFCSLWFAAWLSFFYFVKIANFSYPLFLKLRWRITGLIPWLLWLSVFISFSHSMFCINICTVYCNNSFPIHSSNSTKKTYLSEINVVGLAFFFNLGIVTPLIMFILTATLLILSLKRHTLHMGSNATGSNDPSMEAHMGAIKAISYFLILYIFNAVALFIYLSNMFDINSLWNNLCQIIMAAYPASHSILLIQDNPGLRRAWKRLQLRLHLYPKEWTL
Assay: Cell-based assay for measuring hT2R54 inhibition (FLIPR calcium, Fluo4AM, acetaminophen as bitter agonist)
Settings: read-out: hT2R54 IC50
Method in brief: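 The readout was FLIPR calcium (Fluo4AM, 10 s baseline, 3 min post-addition) in cells stably carrying hT2R54 plus a promiscuous G protein, with host cells lacking hT2R54 as counter-control. Acetaminophen concentration series were tested with and without set test-compound levels. Half-maximal block of the agonist response gave the EC50/IC50.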

[1] = Table 4, cells stably expressing hT2R54 and a promiscuous G protein
[2] = Table 5, cells stably expressing hT2R54 and a promiscuous G protein

IC50 (Table 8) [µM]	further results	Compound
	IC50 [1]: 0.505 µM	CCOC(=O)C1CN(CC(=O)Nc2cc3c(cc2OC)OCO3)CCO1 (centres unmarked) [compound 444]
	IC50 [1]: 0.526 µM	CCOC(=O)C1COCCN1CC(=O)Nc1cc2c(cc1OC)OCO2 (centres unmarked) [compound 445]
	IC50 [1]: 0.19 µM	COc1cc2c(cc1NC(=O)C(C)N1CCN(C(=O)OC(C)(C)C)CC1)OCO2 (centres unmarked) [compound 446]
	IC50 [1]: > 10 µM	CCc1cc2c(cc1NC(=O)CN1CCOCC1)OCO2 [compound 447]
	IC50 [1]: 0.7 µM	CCc1cc2c(cc1NC(=O)CN1CCN(C(=O)OC(C)(C)C)CC1)OCO2 [compound 448]
	IC50 [1]: 0.804 µM	COc1cc2c(cc1NC(=O)CN1CCOCC1)CCC2 [compound 449]
	IC50 [2]: 0.668 µM	CCNC(=O)C1CCCN(CC(=O)Nc2cc3c(cc2OC)OCO3)C1 (centres unmarked) [compound 450]
	IC50 [2]: 0.406 µM	COc1cc2c(cc1NC(=O)CN(C)CCC(=O)NCc1ccccc1)OCO2 [compound 451]
	IC50 [2]: 0.603 µM	COc1cc2c(cc1NC(=O)CN1CCCC(C(=O)NCc3ccccc3)C1)OCO2 (centres unmarked) [compound 452]
	IC50 [2]: 0.969 µM	CNC(=O)C1CCCN(CC(=O)Nc2cc3c(cc2OC)OCO3)C1 (centres unmarked) [compound 453]
0.3		CC(=O)c1cc2c(cc1NC(=O)CC1CCN(C(=O)c3ccncc3)CC1)OCO2 [compound 454]
6		CC(=O)c1cc2c(cc1NC(=O)CC1CCCN(C(=O)c3cc(O)cc(O)c3)C1)OCO2 (centres unmarked) [compound 455]
1.3		CC(=O)c1cc2c(cc1NC(=O)CC1CCCN(C(=O)c3ccc(O)c(O)c3)C1)OCO2 (centres unmarked) [compound 456]
0.14		CC(=O)c1cc2c(cc1NC(=O)CC1CCCN(C(=O)c3ccc(O)cc3O)C1)OCO2 (centres unmarked) [compound 457]
0.16		CC(=O)c1cc2c(cc1NC(=O)CC1CCCN(C(=O)c3cc(O)ccc3O)C1)OCO2 (centres unmarked) [compound 458]
0.095		CC(=O)c1cc2c(cc1NC(=O)CC1CCN(C(=O)c3cnn[nH]3)CC1)OCO2 [compound 459]
0.3		CC(=O)c1cc2c(cc1NC(=O)CC1CCN(C(=O)c3ncn[nH]3)CC1)OCO2 [compound 460]
0.15		CC(=O)c1cc2c(cc1NC(=O)CC1CCN(C(=O)c3cc[nH]n3)CC1)OCO2 [compound 461]
0.03		CC(=O)c1cc2c(cc1NC(=O)CC1CCN(C(=O)c3ncc[nH]3)CC1)OCO2 [compound 462]
0.4		CC(=O)c1cc2c(cc1NC(=O)CC1CCN(C(=O)c3c[nH]c(C)n3)CC1)OCO2 [compound 463]
0.2		CC(=O)c1cc2c(cc1NC(=O)CC1CCN(C(=O)c3n[nH]cc3C)CC1)OCO2 [compound 464]
0.046		CC(=O)c1cc2c(cc1NC(=O)CC1CCN(C(=O)c3nc(C)c[nH]3)CC1)OCO2 [compound 465]
0.7		CC(=O)c1cc2c(cc1NC(=O)CC1CCN(C(=O)c3cc(C)on3)CC1)OCO2 [compound 466]
0.058		CC(=O)c1cc2c(cc1NC(=O)CC1CCN(C(=O)c3ccc(C)o3)CC1)OCO2 [compound 467]
0.07		COCc1ccc(C(=O)N2CCC(CC(=O)Nc3cc4c(cc3C(C)=O)OCO4)CC2)o1 [compound 468]
0.5		COCC(=O)N1CCC(CC(=O)Nc2cc3c(cc2C(C)=O)OCO3)CC1 [compound 469]

IC50 (Table 8) [µM]	further results	Compound
0.7		COCCOCC(=O)N1CCC(CC(=O)Nc2cc3c(cc2C(C)=O)OCO3)CC1 [compound 470]
0.3		CC(=O)c1cc2c(cc1NC(=O)CC1CCN(C(=O)[C@H]3CCCO3)CC1)OCO2 [compound 471]
0.3		CC(=O)c1cc2c(cc1NC(=O)CC1CCN(C(=O)[C@@H]3CCCO3)CC1)OCO2 [compound 472]
> 50		CC(=O)c1cc2c(cc1NC(=O)CC1CCN(C(=O)C3CCN(C)C3)CC1)OCO2 (centres unmarked) [compound 473]
0.13		CC(=O)c1cc2c(cc1NC(=O)CC1CCN(C(=O)[C@H]3CCC(=O)O3)CC1)OCO2 [compound 474]
0.3		CC(=O)c1cc2c(cc1NC(=O)CC1CCN(C(=O)CC3CCCO3)CC1)OCCO2 (centres unmarked) [compound 475]
0.3		CC(=O)c1cc2c(cc1NC(=O)CC1CCN(C(=O)CC3CCCO3)CC1)OCO2 (centres unmarked) [compound 476]
0.4		CC(=O)c1cc2c(cc1NC(=O)CC1CCN(C(=O)CC3CCOC3)CC1)OCO2 (centres unmarked) [compound 477]
> 10		CC(=O)c1cc2c(cc1NC(=O)CC1CCN(C(=O)CN3CCCC3)CC1)OCO2 [compound 479]
1.4		COC(=O)c1cc2c(cc1NC(=O)CC1CCCN(C(C)=O)C1)OCO2 (centres unmarked) [compound 480]
2.2		COC(=O)c1cc2c(cc1NC(=O)CC1CCCN(C(=O)C3CCCO3)C1)OCO2 (centres unmarked) [compound 481]
1.4		COC(=O)c1cc2c(cc1NC(=O)CC1CCN(C(=O)C3CCCO3)CC1)OCO2 (centres unmarked) [compound 482]
0.64		COCc1ccc(C(=O)N2CCC(CC(=O)Nc3cc4c(cc3C(=O)OC)OCO4)CC2)cc1 [compound 483]
0.46		COC(=O)c1cc2c(cc1NC(=O)CC1CCN(C(=O)c3ccncc3)CC1)OCO2 [compound 484]
0.24		CC(=O)c1cc2c(cc1NC(=O)CC1CCN(C(=O)c3cccnc3)CC1)OCCO2 [compound 485]
0.188		COCc1cccc(C(=O)N2CCC(CC(=O)Nc3cc4c(cc3C(C)=O)OCCO4)CC2)c1 [compound 486]
0.25		CC(=O)c1cc2c(cc1NC(=O)CC1CCN(C(=O)c3ccc(CO)o3)CC1)OCCO2 [compound 487]
0.015		COCc1ccc(C(=O)N2CCC(CC(=O)Nc3cc4c(cc3C(C)=O)OCCO4)CC2)s1 [compound 488]
0.15		COCc1ccc(C(=O)N2CCC(CC(=O)Nc3cc4c(cc3C(C)=O)OCCO4)CC2)o1 [compound 489]
0.16		CC(=O)c1cc2c(cc1NC(=O)CC1CCN(C(=O)c3cc(CO)on3)CC1)OCCO2 [compound 490]
0.16		COCc1cc(C(=O)N2CCC(CC(=O)Nc3cc4c(cc3C(C)=O)OCCO4)CC2)no1 [compound 491]
0.45		CC(=O)c1cc2c(cc1NC(=O)CC1CCN(C(=O)C3CCCO3)CC1)OCCO2 (centres unmarked) [compound 493]
0.3		CC(=O)c1cc2c(cc1NC(=O)CC1CCN(C(=O)[C@@H]3CCCO3)CC1)OCCO2 [compound 494]
0.2		CC(=O)c1cc2c(cc1NC(=O)CC1CCN(C(=O)[C@H]3CCCO3)CC1)OCCO2 [compound 495]
> 10		COc1cc2c(cc1NC(=O)CC1CCN(C(C)=O)CC1)OCO2 [compound 496]
> 10		COc1cc2c(cc1NC(=O)CC1CCN(C(=O)C3CCCO3)CC1)OCO2 (centres unmarked) [compound 497]

IC50 (Table 8) [µM]	further results	Compound
> 10		COc1cc2c(cc1NC(=O)CC1CCN(C(=O)Cc3ccco3)CC1)OCO2 [compound 498]
> 10		COc1cc2c(cc1NC(=O)CC1CCN(C(=O)c3nc(C)c[nH]3)CC1)OCO2 [compound 499]
4		COc1cc2c(cc1NC(=O)CC1CCN(C(=O)c3ccc(C)o3)CC1)OCO2 [compound 500]
> 50		COc1cc2c(cc1NC(=O)CC1CCN(C(=O)c3ccncc3)CC1)OCO2 [compound 501]
0.17		CC(=O)c1cc2c(cc1NC(=O)CC1CCCN(C(=O)c3ccncc3)C1)OCO2 (centres unmarked) [compound 502]
0.099		COCc1ccc(C(=O)N2CCCC(CC(=O)Nc3cc4c(cc3C(C)=O)OCO4)C2)cc1 (centres unmarked) [compound 503]
0.159		CC(=O)c1cc2c(cc1NC(=O)CC1CCCN(C(=O)c3nc(C)c[nH]3)C1)OCO2 (centres unmarked) [compound 504]
0.13		CC(=O)c1cc2c(cc1NC(=O)CC1CCCN(C(=O)c3ncc[nH]3)C1)OCO2 (centres unmarked) [compound 505]
0.113		CC(=O)c1cc2c(cc1NC(=O)CC1CCCN(C(=O)c3cccnc3)C1)OCO2 (centres unmarked) [compound 506]
0.275		CC(=O)c1cc2c(cc1NC(=O)CC1CCCN(C(=O)c3ccccn3)C1)OCO2 (centres unmarked) [compound 507]
1.2		COC(=O)c1cc2c(cc1NC(=O)CC1CCCN(C(C)=O)C1)OCCO2 (centres unmarked) [compound 508]
0.18		CC(=O)c1cc2c(cc1NC(=O)CC1CN(C(C)=O)CCO1)OCO2 (centres unmarked) [compound 509]
0.15		CC(=O)c1cc2c(cc1NC(=O)CC1CN(C(=O)C3CCCO3)CCO1)OCO2 (centres unmarked) [compound 510]
> 10		COc1cc2c(cc1NC(=O)CC1CCCN(C(=O)CC(C)C)C1)OCO2 (centres unmarked) [compound 511]
7.7		COc1cc2c(cc1NC(=O)CC1CCCN(C(=O)c3ccco3)C1)OCO2 (centres unmarked) [compound 512]
2.7		COc1cc2c(cc1NC(=O)CC1CCCN(C(=O)c3ccccc3)C1)OCO2 (centres unmarked) [compound 513]
0.5		CCS(=O)(=O)N1CCCC(CC(=O)Nc2cc3c(cc2OC)OCO3)C1 (centres unmarked) [compound 515]
	IC50 (Table 9): 3 µM	CC(=O)c1cc2c(cc1NC(=O)CC(C)C)OCO2 [compound 516]
	IC50 (Table 9): 0.414 µM	CC(=O)c1cc2c(cc1NC(=O)CC1CCCC1)OCO2 [compound 517]
	IC50 (Table 9): 3.8 µM	CC(=O)c1cc2c(cc1NC(=O)Cc1c(C)noc1C)OCO2 [compound 518]
	IC50 (Table 9): 0.9 µM	CC(=O)c1cc2c(cc1NC(=O)CC1CCCN(C(=O)OC(C)(C)C)C1)OCO2 (centres unmarked) [compound 519]
	IC50 (Table 9): 0.308 µM	COc1cc2c(cc1NC(=O)CC1CCCC1)OCO2 [compound 520]
	IC50 (Table 9): 2.26 µM	COc1cc2c(cc1NC(=O)CC1CCCCO1)OCO2 (centres unmarked) [compound 521]
	IC50 (Table 9): 0.886 µM	COc1ccccc1CC(=O)Nc1cc2c(cc1OC)OCO2 [compound 522]
	IC50 (Table 9): 2.31 µM	CC(=O)c1cc2c(cc1NC(=O)Cc1ccco1)OCO2 [compound 523]
